Data on two molecules can be found in EP1422230B1 (priority 2002, dated 2004).

Structures can show the parent of a compound that is named as a salt. Where two headings read alike, the source gives them in different places. Bounds are passed on as bounds.

A word on the Cmax: it is the peak of the concentration-time curve. By Tmax is commonly meant the time at which the peak concentration occurs.

For data set [1], the system named is rats. Further details: species or system male Sprague-Dawley rats. The note with it: rat, in vivo.
The conditions of data set [2]: parenteral, on a weight basis; cited from earlier work.
For data set [3] the following is noted: intramuscular injection or intravenous injection; cited from earlier work.
For data set [4] the following is noted: cited from earlier work; for Plasma concentrations: intravenous about 0.3 mg.
Where [5] appears, read: intravenous, single dose of about 0.3 mg.

On to `CO[C@]12CC[C@@]3(C[C@@H]1[C@](C)(O)C(C)(C)C)[C@H]1Cc4ccc(O)c5c4[C@@]3(CCN1CC1CC1)[C@H]2O5` [Buprenorphine HCl], for which, in data set [1] (HCl), the “Analgesic duration” value amounted to 5 h and the “duration of analgesic action” value was in the range of 3 to 5 h.
Turning to `CO[C@]12CC[C@@]3(C[C@@H]1[C@](C)(O)C(C)(C)C)[C@H]1Cc4ccc(O)c5c4[C@@]3(CCN1CC1CC1)[C@H]2O5` [Buprenorphine base, (5α, 7α (S)-17-cyclopropyl-methyl)-α -(1,1-dimethylethyl)-4,5-epoxy-18,19-dihydro-3-hydroxy-6-methoxy-α -methyl-6,14-ethenomorphinan-7-methanol], the “duration of analgesic action” value in data set [1] was in the range of 48 to 50 h. The molecule further had a duration of action in data set [1] (sc) of 48 to 50 h. In data set [2], the “analgesic potency, times as that of meperidine” value is “about 600 times” and the “analgesic potency, times as that of pentazocine” value is reported as “about 200 times”. The duration of action in data set [3] is 6 to 8 h. Further, in data set [4] (0.4 mg sublingual dose), the Cmax is 0.5 ± 0.06 ng/mL, the time to peak (Tmax) is 3.5 ± 0.667 h and the systemic availability is recorded as 57.7±6%. Further, in data set [4] (conscious postoperative patients), the Total plasma clearance result is listed as “approximately 0.28 L/minute”. Further, the “mean peak plasma buprenorphine concentrations” value in data set [4] (intramuscular second 0.3-mg dose 3 hours after the initial intravenous dose) is on record as “about 3.6 ng/mL”. Also, in data set [4] (intramuscular second 0.3-mg dose, after about 3 hours), the plasma buprenorphine concentrations entry was “about 0.4 ng/mL”. Moreover, the Plasma concentrations entry in data set [4] (after about 5 minutes) is on record as “about 9 ng/mL”. For the same molecule, in data set [4] (after about 3 hours), the Plasma concentrations entry is given as “about 0 .4 ng/mL”. In data set [4] (setting [5]), the “mean peak plasma drug concentrations” value is on record as “about 18 ng/mL” and the “time of mean peak plasma drug concentrations” value was at most 2 min.
